This assay deals with ABCC1 (MRP1) (Homo sapiens, UniProt P33527).

Experimental findings from paper PMC4820889 (Journal of Biomedical Research, 2015) are described below.

Usually IC50 stands for the concentration that gives 50% inhibition. Lower therefore signals inhibition by little substance.

ABCC1 (MRP1), sequence (P33527 whole entry): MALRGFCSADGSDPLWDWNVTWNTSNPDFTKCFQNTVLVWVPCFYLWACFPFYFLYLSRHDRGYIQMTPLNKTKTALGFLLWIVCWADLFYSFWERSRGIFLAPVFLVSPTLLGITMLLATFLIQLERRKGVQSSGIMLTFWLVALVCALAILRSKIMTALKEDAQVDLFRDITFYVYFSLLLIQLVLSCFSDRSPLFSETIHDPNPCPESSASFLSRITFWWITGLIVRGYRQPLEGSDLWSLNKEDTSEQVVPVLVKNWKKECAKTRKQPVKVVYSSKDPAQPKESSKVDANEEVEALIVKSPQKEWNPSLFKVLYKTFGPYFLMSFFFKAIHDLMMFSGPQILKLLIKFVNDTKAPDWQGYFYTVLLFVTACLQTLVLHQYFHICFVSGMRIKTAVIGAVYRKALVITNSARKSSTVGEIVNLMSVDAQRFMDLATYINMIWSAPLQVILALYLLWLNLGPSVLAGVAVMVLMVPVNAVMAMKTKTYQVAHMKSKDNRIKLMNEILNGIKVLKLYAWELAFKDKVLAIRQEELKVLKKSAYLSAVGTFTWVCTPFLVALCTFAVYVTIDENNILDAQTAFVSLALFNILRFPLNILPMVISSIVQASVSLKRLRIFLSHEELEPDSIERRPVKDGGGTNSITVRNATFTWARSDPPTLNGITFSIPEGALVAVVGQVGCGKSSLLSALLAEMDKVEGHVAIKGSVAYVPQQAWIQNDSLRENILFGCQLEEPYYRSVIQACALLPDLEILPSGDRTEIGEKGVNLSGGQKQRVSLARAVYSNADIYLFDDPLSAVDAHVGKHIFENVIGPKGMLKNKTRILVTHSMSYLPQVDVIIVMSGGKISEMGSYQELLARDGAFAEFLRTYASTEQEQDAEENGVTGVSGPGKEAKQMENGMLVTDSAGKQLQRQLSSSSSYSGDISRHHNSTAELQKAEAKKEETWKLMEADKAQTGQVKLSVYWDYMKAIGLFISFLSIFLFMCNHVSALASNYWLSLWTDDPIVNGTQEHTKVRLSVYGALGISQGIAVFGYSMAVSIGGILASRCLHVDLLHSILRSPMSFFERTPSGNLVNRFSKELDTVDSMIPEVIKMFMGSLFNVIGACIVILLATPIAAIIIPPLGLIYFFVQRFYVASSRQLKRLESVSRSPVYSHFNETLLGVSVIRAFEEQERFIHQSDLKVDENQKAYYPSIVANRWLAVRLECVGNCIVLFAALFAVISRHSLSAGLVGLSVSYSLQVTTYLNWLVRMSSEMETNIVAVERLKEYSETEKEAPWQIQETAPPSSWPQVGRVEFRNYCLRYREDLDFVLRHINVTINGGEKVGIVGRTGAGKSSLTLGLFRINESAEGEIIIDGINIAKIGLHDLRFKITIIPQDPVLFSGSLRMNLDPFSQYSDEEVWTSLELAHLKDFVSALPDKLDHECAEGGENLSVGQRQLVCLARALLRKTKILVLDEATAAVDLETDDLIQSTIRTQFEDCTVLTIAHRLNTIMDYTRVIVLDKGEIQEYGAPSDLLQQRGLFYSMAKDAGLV

In turn, `CSc1ccc(/C=C2/C(C)=C(CC(=O)O)c3cc(F)ccc32)cc1` [SS, sulindac sulfide] showed an IC50 of 5.6 µM.
